Read-outs that look alike come from different tables or passages of the source.
Test system: rats (testicular mass)
Assay: Antigonadotrophic activity (testicular mass) in rats
Assay type: in vivo, rat
Conditions: for ED50: Rattus norvegicus; for IE %: testicular mass
Protocol: The effective dose for the HE50 was close to 0.65 mg/kg of body-wt./5 d, while mestranol has the same effect at a dose as low as 0.15 mg/kg of body-wt./5 d.

[1] = total dose 0.25 mg/kg of body-wt. p.o., n=9
[2] = total dose 0.50 mg/kg of body-wt. p.o., n=10
[3] = total dose 1.00 mg/kg of body-wt. p.o., n=10

Structure (SMILES): COc1ccc2c(c1)CC[C@@H]1[C@@H]2CC[C@]2(C)[C@@H](O)C[C@H]3C[C@@]312 [STS 593, 3-methoxy-14β,15β-methylene-estra-1,3,5(10)-triene-17β-ol]
- ED50 (120 h, rats, read-out: Effective dose for the HE50, antigonadotrophic): ~0.65 mg/kg
- ED50 (po, antigonadotrophic, total dose p.o., read-out: HE 50 (the source's name)): 0.65 mg/kg
- Antigonadotrophic effect compared to mestranol (rats): four times weaker than mestranol
- IE % [1]: 18.1%
- IE % [2]: 39.6%
- IE % [3]: 68.9%
- Testicular mass (-x ± s-x) [1]: 312.4 ± 42.5 mg
- Testicular mass (-x ± s-x) [2]: 272.3 ± 37.7 mg
- Testicular mass (-x ± s-x) [3]: 217.6 ± 24.2 mg
